Measured values from patent US11826373B2, “Methods for treatment of diseases” (Galera Labs, LLC, priority 2011, dated 2023).

Tested on: healthy male and female subjects
Experiment: Human Phase 1 single rising dose safety and tolerability of GC4403
Type: in vivo
Experimental: In a Phase 1 randomized, double-blind, placebo-controlled single rising dose safety, tolerability and pharmacokinetics study, 54 healthy male and female subjects were dosed from 2.2 to 25 mg of GC4403 administered intravenously over 30 minutes. Disposition of GC4403 is multi-exponential and follows linear pharmacokinetics with generally proportional increases in AUC and Cmax with increasing dose over the dose ranges studied. […] GC4403 is excreted unchanged in the urine and accounts for approximately 9 to 17% of the dose administered. No significant cardiovascular or vital sign effects, no significant physical examination abnormalities, and no significant abnormalities in routine clinical laboratory assessments were observed. Facial tingling, generalized tingling, paraesthesias and facial warmth were reported in a dose responsive manner, occurring at the 16.7 and 25 mg GC4403 doses.

SMILES: [Cl][Mn-5]1234([Cl])[n+]5c6cccc5C[NH+]1[C@@H]1CCCC[C@H]1[NH+]2CC[NH+]3[C@@H]1CCCC[C@H]1[NH+]4C6 (stereo partly shown) [GC4403]
- Any Event (treatment-emergent adverse event) (2.2 mg, 4 subjects dosed): 1 (25) N (%)
- Conjunctivitis (treatment-emergent adverse event) (2.2 mg, 4 subjects dosed): 1 (25) N (%)
- Cough (treatment-emergent adverse event) (2.2 mg, 4 subjects dosed): 0 (0) N (%)
- Discolored Urine (treatment-emergent adverse event) (2.2 mg, 4 subjects dosed): 0 (0) N (%)
- Drowsiness (treatment-emergent adverse event) (2.2 mg, 4 subjects dosed): 0 (0) N (%)
- Facial Warmth (treatment-emergent adverse event) (2.2 mg, 4 subjects dosed): 0 (0) N (%)
- Feeling Drunk (treatment-emergent adverse event) (2.2 mg, 4 subjects dosed): 0 (0) N (%)
- Headache (treatment-emergent adverse event) (2.2 mg, 4 subjects dosed): 0 (0) N (%)
- Inj. Site Pressure (treatment-emergent adverse event) (2.2 mg, 4 subjects dosed): 0 (0) N (%)
- Inj. Site Reaction (treatment-emergent adverse event) (2.2 mg, 4 subjects dosed): 0 (0) N (%)
- Injection Site Pain (treatment-emergent adverse event) (2.2 mg, 4 subjects dosed): 0 (0) N (%)
- Lightheadedness (treatment-emergent adverse event) (2.2 mg, 4 subjects dosed): 0 (0) N (%)
- Paresthesia (treatment-emergent adverse event) (2.2 mg, 4 subjects dosed): 0 (0) N (%)
- Skin Tightness (treatment-emergent adverse event) (2.2 mg, 4 subjects dosed): 0 (0) N (%)
- Taste Perversion (treatment-emergent adverse event) (2.2 mg, 4 subjects dosed): 0 (0) N (%)
- Tingling (treatment-emergent adverse event) (2.2 mg, 4 subjects dosed): 0 (0) N (%)
- Tingling Mouth (treatment-emergent adverse event) (2.2 mg, 4 subjects dosed): 0 (0) N (%)
- Any Event (treatment-emergent adverse event) (3.3 mg, 4 subjects dosed): 2 (50) N (%)
- Conjunctivitis (treatment-emergent adverse event) (3.3 mg, 4 subjects dosed): 0 (0) N (%)
- Cough (treatment-emergent adverse event) (3.3 mg, 4 subjects dosed): 0 (0) N (%)
- Discolored Urine (treatment-emergent adverse event) (3.3 mg, 4 subjects dosed): 0 (0) N (%)
- Drowsiness (treatment-emergent adverse event) (3.3 mg, 4 subjects dosed): 0 (0) N (%)
- Facial Warmth (treatment-emergent adverse event) (3.3 mg, 4 subjects dosed): 0 (0) N (%)
- Feeling Drunk (treatment-emergent adverse event) (3.3 mg, 4 subjects dosed): 0 (0) N (%)
- Headache (treatment-emergent adverse event) (3.3 mg, 4 subjects dosed): 0 (0) N (%)
- Inj. Site Pressure (treatment-emergent adverse event) (3.3 mg, 4 subjects dosed): 0 (0) N (%)
- Inj. Site Reaction (treatment-emergent adverse event) (3.3 mg, 4 subjects dosed): 1 (25) N (%)
- Injection Site Pain (treatment-emergent adverse event) (3.3 mg, 4 subjects dosed): 0 (0) N (%)
- Lightheadedness (treatment-emergent adverse event) (3.3 mg, 4 subjects dosed): 1 (25) N (%)
- Paresthesia (treatment-emergent adverse event) (3.3 mg, 4 subjects dosed): 0 (0) N (%)
- Skin Tightness (treatment-emergent adverse event) (3.3 mg, 4 subjects dosed): 0 (0) N (%)
- Taste Perversion (treatment-emergent adverse event) (3.3 mg, 4 subjects dosed): 0 (0) N (%)
- Tingling (treatment-emergent adverse event) (3.3 mg, 4 subjects dosed): 0 (0) N (%)
- Tingling Mouth (treatment-emergent adverse event) (3.3 mg, 4 subjects dosed): 0 (0) N (%)
- Any Event (treatment-emergent adverse event) (4.9 mg, 4 subjects dosed): 1 (25) N (%)
- Conjunctivitis (treatment-emergent adverse event) (4.9 mg, 4 subjects dosed): 0 (0) N (%)
- Cough (treatment-emergent adverse event) (4.9 mg, 4 subjects dosed): 0 (0) N (%)
- Discolored Urine (treatment-emergent adverse event) (4.9 mg, 4 subjects dosed): 0 (0) N (%)
- Drowsiness (treatment-emergent adverse event) (4.9 mg, 4 subjects dosed): 0 (0) N (%)
- Facial Warmth (treatment-emergent adverse event) (4.9 mg, 4 subjects dosed): 0 (0) N (%)
- Feeling Drunk (treatment-emergent adverse event) (4.9 mg, 4 subjects dosed): 0 (0) N (%)
- Headache (treatment-emergent adverse event) (4.9 mg, 4 subjects dosed): 0 (0) N (%)
- Inj. Site Pressure (treatment-emergent adverse event) (4.9 mg, 4 subjects dosed): 0 (0) N (%)
- Inj. Site Reaction (treatment-emergent adverse event) (4.9 mg, 4 subjects dosed): 0 (0) N (%)
- Injection Site Pain (treatment-emergent adverse event) (4.9 mg, 4 subjects dosed): 0 (0) N (%)
- Lightheadedness (treatment-emergent adverse event) (4.9 mg, 4 subjects dosed): 0 (0) N (%)
- Paresthesia (treatment-emergent adverse event) (4.9 mg, 4 subjects dosed): 0 (0) N (%)
- Skin Tightness (treatment-emergent adverse event) (4.9 mg, 4 subjects dosed): 0 (0) N (%)
- Taste Perversion (treatment-emergent adverse event) (4.9 mg, 4 subjects dosed): 0 (0) N (%)
- Tingling (treatment-emergent adverse event) (4.9 mg, 4 subjects dosed): 0 (0) N (%)
- Tingling Mouth (treatment-emergent adverse event) (4.9 mg, 4 subjects dosed): 0 (0) N (%)
- Any Event (treatment-emergent adverse event) (7.4 mg, 4 subjects dosed): 3 (75) N (%)
- Conjunctivitis (treatment-emergent adverse event) (7.4 mg, 4 subjects dosed): 0 (0) N (%)
- Cough (treatment-emergent adverse event) (7.4 mg, 4 subjects dosed): 0 (0) N (%)
- Discolored Urine (treatment-emergent adverse event) (7.4 mg, 4 subjects dosed): 0 (0) N (%)
- Drowsiness (treatment-emergent adverse event) (7.4 mg, 4 subjects dosed): 0 (0) N (%)
- Facial Warmth (treatment-emergent adverse event) (7.4 mg, 4 subjects dosed): 0 (0) N (%)
- Feeling Drunk (treatment-emergent adverse event) (7.4 mg, 4 subjects dosed): 0 (0) N (%)
- Headache (treatment-emergent adverse event) (7.4 mg, 4 subjects dosed): 1 (25) N (%)
- Inj. Site Pressure (treatment-emergent adverse event) (7.4 mg, 4 subjects dosed): 1 (25) N (%)
- Inj. Site Reaction (treatment-emergent adverse event) (7.4 mg, 4 subjects dosed): 0 (0) N (%)
- Injection Site Pain (treatment-emergent adverse event) (7.4 mg, 4 subjects dosed): 0 (0) N (%)
- Lightheadedness (treatment-emergent adverse event) (7.4 mg, 4 subjects dosed): 0 (0) N (%)
- Paresthesia (treatment-emergent adverse event) (7.4 mg, 4 subjects dosed): 0 (0) N (%)
- Skin Tightness (treatment-emergent adverse event) (7.4 mg, 4 subjects dosed): 0 (0) N (%)
- Taste Perversion (treatment-emergent adverse event) (7.4 mg, 4 subjects dosed): 0 (0) N (%)
- Tingling (treatment-emergent adverse event) (7.4 mg, 4 subjects dosed): 0 (0) N (%)
- Tingling Mouth (treatment-emergent adverse event) (7.4 mg, 4 subjects dosed): 0 (0) N (%)
- Any Event (treatment-emergent adverse event) (11.1 mg, 4 subjects dosed): 0 (0) N (%)
- Conjunctivitis (treatment-emergent adverse event) (11.1 mg, 4 subjects dosed): 0 (0) N (%)
- Cough (treatment-emergent adverse event) (11.1 mg, 4 subjects dosed): 0 (0) N (%)
- Discolored Urine (treatment-emergent adverse event) (11.1 mg, 4 subjects dosed): 0 (0) N (%)
- Drowsiness (treatment-emergent adverse event) (11.1 mg, 4 subjects dosed): 0 (0) N (%)
- Facial Warmth (treatment-emergent adverse event) (11.1 mg, 4 subjects dosed): 0 (0) N (%)
- Feeling Drunk (treatment-emergent adverse event) (11.1 mg, 4 subjects dosed): 0 (0) N (%)
- Headache (treatment-emergent adverse event) (11.1 mg, 4 subjects dosed): 0 (0) N (%)
- Inj. Site Pressure (treatment-emergent adverse event) (11.1 mg, 4 subjects dosed): 0 (0) N (%)
- Inj. Site Reaction (treatment-emergent adverse event) (11.1 mg, 4 subjects dosed): 0 (0) N (%)
- Injection Site Pain (treatment-emergent adverse event) (11.1 mg, 4 subjects dosed): 0 (0) N (%)
- Lightheadedness (treatment-emergent adverse event) (11.1 mg, 4 subjects dosed): 0 (0) N (%)
- Paresthesia (treatment-emergent adverse event) (11.1 mg, 4 subjects dosed): 0 (0) N (%)
- Skin Tightness (treatment-emergent adverse event) (11.1 mg, 4 subjects dosed): 0 (0) N (%)
- Taste Perversion (treatment-emergent adverse event) (11.1 mg, 4 subjects dosed): 0 (0) N (%)
- Tingling (treatment-emergent adverse event) (11.1 mg, 4 subjects dosed): 0 (0) N (%)
- Tingling Mouth (treatment-emergent adverse event) (11.1 mg, 4 subjects dosed): 0 (0) N (%)
- Any Event (treatment-emergent adverse event) (16.7 mg, 4 subjects dosed): 2 (50) N (%)
- Conjunctivitis (treatment-emergent adverse event) (16.7 mg, 4 subjects dosed): 0 (0) N (%)
- Cough (treatment-emergent adverse event) (16.7 mg, 4 subjects dosed): 1 (25) N (%)
- Discolored Urine (treatment-emergent adverse event) (16.7 mg, 4 subjects dosed): 0 (0) N (%)
- Drowsiness (treatment-emergent adverse event) (16.7 mg, 4 subjects dosed): 0 (0) N (%)
- Facial Warmth (treatment-emergent adverse event) (16.7 mg, 4 subjects dosed): 0 (0) N (%)
- Feeling Drunk (treatment-emergent adverse event) (16.7 mg, 4 subjects dosed): 0 (0) N (%)
- Headache (treatment-emergent adverse event) (16.7 mg, 4 subjects dosed): 1 (25) N (%)
- Inj. Site Pressure (treatment-emergent adverse event) (16.7 mg, 4 subjects dosed): 0 (0) N (%)
- Inj. Site Reaction (treatment-emergent adverse event) (16.7 mg, 4 subjects dosed): 0 (0) N (%)
- Injection Site Pain (treatment-emergent adverse event) (16.7 mg, 4 subjects dosed): 1 (25) N (%)
- Lightheadedness (treatment-emergent adverse event) (16.7 mg, 4 subjects dosed): 0 (0) N (%)
- Paresthesia (treatment-emergent adverse event) (16.7 mg, 4 subjects dosed): 0 (0) N (%)
- Skin Tightness (treatment-emergent adverse event) (16.7 mg, 4 subjects dosed): 0 (0) N (%)
- Taste Perversion (treatment-emergent adverse event) (16.7 mg, 4 subjects dosed): 0 (0) N (%)
- Tingling (treatment-emergent adverse event) (16.7 mg, 4 subjects dosed): 2 (50) N (%)
- Tingling Mouth (treatment-emergent adverse event) (16.7 mg, 4 subjects dosed): 0 (0) N (%)
- Any Event (treatment-emergent adverse event) (25.0 mg, 12 subjects dosed): 10 (87.3) N (%)
- Conjunctivitis (treatment-emergent adverse event) (25.0 mg, 12 subjects dosed): 0 (0) N (%)
- Cough (treatment-emergent adverse event) (25.0 mg, 12 subjects dosed): 0 (0) N (%)
- Discolored Urine (treatment-emergent adverse event) (25.0 mg, 12 subjects dosed): 1 (8.3) N (%)
- Drowsiness (treatment-emergent adverse event) (25.0 mg, 12 subjects dosed): 1 (8.3) N (%)
- Facial Warmth (treatment-emergent adverse event) (25.0 mg, 12 subjects dosed): 1 (8.3) N (%)
- Feeling Drunk (treatment-emergent adverse event) (25.0 mg, 12 subjects dosed): 1 (8.3) N (%)
- Headache (treatment-emergent adverse event) (25.0 mg, 12 subjects dosed): 1 (8.3) N (%)
- Inj. Site Pressure (treatment-emergent adverse event) (25.0 mg, 12 subjects dosed): 1 (8.3) N (%)
- Inj. Site Reaction (treatment-emergent adverse event) (25.0 mg, 12 subjects dosed): 1 (8.3) N (%)
- Injection Site Pain (treatment-emergent adverse event) (25.0 mg, 12 subjects dosed): 4 (33.3) N (%)
- Lightheadedness (treatment-emergent adverse event) (25.0 mg, 12 subjects dosed): 2 (16.7) N (%)
- Paresthesia (treatment-emergent adverse event) (25.0 mg, 12 subjects dosed): 1 (8.3) N (%)
- Skin Tightness (treatment-emergent adverse event) (25.0 mg, 12 subjects dosed): 1 (8.3) N (%)
- Taste Perversion (treatment-emergent adverse event) (25.0 mg, 12 subjects dosed): 1 (8.3) N (%)
- Tingling (treatment-emergent adverse event) (25.0 mg, 12 subjects dosed): 3 (25.0) N (%)
- Tingling Mouth (treatment-emergent adverse event) (25.0 mg, 12 subjects dosed): 5 (41.7) N (%)
- maximum tolerated dose (MTD) (2.2 to 25 mg IV over 30 minutes): not established
- tolerability of single doses up to 25 mg (healthy subjects): no severe adverse events
